Assay results from US9409903B2, “Benzyl substituted triazine derivatives and their therapeutical applications” (NantBioScience, Inc., priority 2009, dated 2016).

Columns and labels:
Format in all cases: biochemical
TrkA Kinase = biological target: T1, TrkA Kinase (Homo sapiens, UniProt P04629); assay: TrkA kinase inhibition assay (KinaseProfiler / Kinase Hotspot); details: compound at 1 μM
T1 construct: purchased Millipore (KinaseProfiler service); also Reaction Biology Corp. (Kinase Hotspot)
Protocol: (§1) This example illustrated c-Src kinase, Aurora-A kinase, Flt3 kinase, Ret kinase and TrkA Kinase Assays of selected Compounds from this invention (referred to Daniele Fancelli et al, J. Med. Chem., 2006, 49 (24), pp 7247-7251). The KinaseProfiler™ Service Assay Protocols (Millipore) were used to test the kinase inhibiting activity of novel compounds from this invention. To do this, the buffer composition was as: 20 mM MOPS, 1 mM EDTA, 0.01% Brij-35, 5% Glycerol, 0.1% β-mercaptoethanol, 1 mg/mL BSA. Test compounds were initially dissolved in DMSO at the desired concentration, then serially diluted to the kinase assay buffer. In a final reaction volume of 25 μL, Aurora-A(h) (5-10 mU) is incubated with 8 mM MOPS pH 7.0, 0.2 mM EDTA, 200 μM LRRASLG (Kemptide), 10 mM MgAcetate and [γ^33P-ATP]. The reaction was initiated by the addition of the MgATP mix. After incubation for 40 minute at room temperature, the reaction was stopped by addition of 5 μL of a 3% phosphoric acid solution. 10 μL of the reaction was then spotted onto a P30 filtermat and washed three times for 5 minutes in 50 mM phosphoric acid and once in methanol prior to drying and scintillation counting. Wells containing substrate but no kinase and wells containing a phosphopeptide control were used to set 0% and 100% phosphorylation value, receptively.
(§2) Also Kinase Hotspot^SM kinase assay was used to test the compounds for IC50 or % inhibitions (Reaction Biology Corp.). Inhibitor IC50 values were determined by titration of compound at the optimal kinase concentration (Kinase EC50).

c-Src kinase = biological target: T2, c-Src kinase (Homo sapiens, UniProt P12931); assay: c-Src kinase inhibition assay (KinaseProfiler / Kinase Hotspot); details: compound at 1 μM; read-out: % Inhibition @1 μM cSrc
T2 construct: purchased Millipore (KinaseProfiler service); also Reaction Biology Corp. (Kinase Hotspot)
T2 sequence (P12931 whole entry): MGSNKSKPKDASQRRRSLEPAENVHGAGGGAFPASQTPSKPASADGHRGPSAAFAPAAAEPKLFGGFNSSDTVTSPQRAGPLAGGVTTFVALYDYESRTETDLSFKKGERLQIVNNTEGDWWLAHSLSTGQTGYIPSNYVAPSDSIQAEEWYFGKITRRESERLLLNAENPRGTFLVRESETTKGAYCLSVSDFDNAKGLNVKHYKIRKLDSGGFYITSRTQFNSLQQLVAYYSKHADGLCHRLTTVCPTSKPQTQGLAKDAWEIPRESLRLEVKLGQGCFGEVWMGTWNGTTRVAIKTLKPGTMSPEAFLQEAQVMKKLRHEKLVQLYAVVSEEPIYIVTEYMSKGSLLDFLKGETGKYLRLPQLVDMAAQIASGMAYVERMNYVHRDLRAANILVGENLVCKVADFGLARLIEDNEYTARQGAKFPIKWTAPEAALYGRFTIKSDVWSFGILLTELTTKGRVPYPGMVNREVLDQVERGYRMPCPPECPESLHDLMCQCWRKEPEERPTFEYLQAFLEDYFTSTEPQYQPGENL
Protocol: as §1, §2

Aurora-A(h) = biological target: T3, Aurora-A(h) (Homo sapiens, UniProt O14965); assay: Aurora-A kinase inhibition assay (KinaseProfiler / Kinase Hotspot); details: compound at 1 μM
T3 construct: purchased Millipore (KinaseProfiler service); also Reaction Biology Corp. (Kinase Hotspot)
T3 sequence (O14965 1-403): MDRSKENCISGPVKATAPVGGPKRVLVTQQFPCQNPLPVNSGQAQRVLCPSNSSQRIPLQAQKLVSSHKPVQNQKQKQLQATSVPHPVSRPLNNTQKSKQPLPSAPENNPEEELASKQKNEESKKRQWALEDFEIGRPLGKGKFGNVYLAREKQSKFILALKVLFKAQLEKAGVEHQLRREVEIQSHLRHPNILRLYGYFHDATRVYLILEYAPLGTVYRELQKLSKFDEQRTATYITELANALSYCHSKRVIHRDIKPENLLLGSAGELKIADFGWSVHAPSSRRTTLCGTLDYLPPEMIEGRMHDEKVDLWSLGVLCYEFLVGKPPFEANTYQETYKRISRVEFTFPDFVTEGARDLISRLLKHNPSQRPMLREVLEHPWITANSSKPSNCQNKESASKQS
Protocol: as §1, §2

Ret kinase = biological target: T4, Ret kinase (Homo sapiens, UniProt P07949); assay: Ret kinase inhibition assay (KinaseProfiler / Kinase Hotspot); details: compound at 1 μM
T4 construct: purchased Millipore (KinaseProfiler service); also Reaction Biology Corp. (Kinase Hotspot)
T4 sequence (P07949 29-1114): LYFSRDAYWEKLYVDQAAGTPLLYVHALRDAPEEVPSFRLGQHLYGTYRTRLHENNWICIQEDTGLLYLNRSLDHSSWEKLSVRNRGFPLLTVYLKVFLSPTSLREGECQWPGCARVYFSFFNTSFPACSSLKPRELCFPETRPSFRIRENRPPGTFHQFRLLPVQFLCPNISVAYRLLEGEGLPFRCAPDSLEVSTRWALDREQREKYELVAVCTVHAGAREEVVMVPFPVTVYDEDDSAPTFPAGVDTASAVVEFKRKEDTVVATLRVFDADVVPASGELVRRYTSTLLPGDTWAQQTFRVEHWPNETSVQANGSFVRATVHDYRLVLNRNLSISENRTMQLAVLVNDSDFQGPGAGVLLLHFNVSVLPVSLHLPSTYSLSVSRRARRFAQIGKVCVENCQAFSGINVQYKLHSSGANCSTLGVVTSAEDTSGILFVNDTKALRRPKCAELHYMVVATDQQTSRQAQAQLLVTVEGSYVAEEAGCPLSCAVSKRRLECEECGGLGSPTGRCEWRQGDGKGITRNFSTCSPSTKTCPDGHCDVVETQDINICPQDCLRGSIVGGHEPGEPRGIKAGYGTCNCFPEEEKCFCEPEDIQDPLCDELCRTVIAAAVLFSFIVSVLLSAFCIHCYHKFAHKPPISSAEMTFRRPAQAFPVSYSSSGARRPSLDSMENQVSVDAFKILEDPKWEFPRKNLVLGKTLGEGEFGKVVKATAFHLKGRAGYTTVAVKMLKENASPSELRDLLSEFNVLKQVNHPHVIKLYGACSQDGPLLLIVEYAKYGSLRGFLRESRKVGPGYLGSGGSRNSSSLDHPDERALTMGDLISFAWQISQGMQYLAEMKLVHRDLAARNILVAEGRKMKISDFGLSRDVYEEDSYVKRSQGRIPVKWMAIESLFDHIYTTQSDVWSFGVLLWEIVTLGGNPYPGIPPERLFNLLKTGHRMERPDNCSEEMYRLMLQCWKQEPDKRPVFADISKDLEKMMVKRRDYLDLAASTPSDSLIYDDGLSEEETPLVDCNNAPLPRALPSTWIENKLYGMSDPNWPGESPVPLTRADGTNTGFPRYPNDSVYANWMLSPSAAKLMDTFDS
Protocol: as §1, §2

Flt3 kinase = biological target: T5, Flt3 kinase (Homo sapiens, UniProt P36888); assay: Flt3 kinase inhibition assay (KinaseProfiler / Kinase Hotspot); details: compound at 1 μM
T5 construct: purchased Millipore (KinaseProfiler service); also Reaction Biology Corp. (Kinase Hotspot)
T5 sequence (P36888 27-993): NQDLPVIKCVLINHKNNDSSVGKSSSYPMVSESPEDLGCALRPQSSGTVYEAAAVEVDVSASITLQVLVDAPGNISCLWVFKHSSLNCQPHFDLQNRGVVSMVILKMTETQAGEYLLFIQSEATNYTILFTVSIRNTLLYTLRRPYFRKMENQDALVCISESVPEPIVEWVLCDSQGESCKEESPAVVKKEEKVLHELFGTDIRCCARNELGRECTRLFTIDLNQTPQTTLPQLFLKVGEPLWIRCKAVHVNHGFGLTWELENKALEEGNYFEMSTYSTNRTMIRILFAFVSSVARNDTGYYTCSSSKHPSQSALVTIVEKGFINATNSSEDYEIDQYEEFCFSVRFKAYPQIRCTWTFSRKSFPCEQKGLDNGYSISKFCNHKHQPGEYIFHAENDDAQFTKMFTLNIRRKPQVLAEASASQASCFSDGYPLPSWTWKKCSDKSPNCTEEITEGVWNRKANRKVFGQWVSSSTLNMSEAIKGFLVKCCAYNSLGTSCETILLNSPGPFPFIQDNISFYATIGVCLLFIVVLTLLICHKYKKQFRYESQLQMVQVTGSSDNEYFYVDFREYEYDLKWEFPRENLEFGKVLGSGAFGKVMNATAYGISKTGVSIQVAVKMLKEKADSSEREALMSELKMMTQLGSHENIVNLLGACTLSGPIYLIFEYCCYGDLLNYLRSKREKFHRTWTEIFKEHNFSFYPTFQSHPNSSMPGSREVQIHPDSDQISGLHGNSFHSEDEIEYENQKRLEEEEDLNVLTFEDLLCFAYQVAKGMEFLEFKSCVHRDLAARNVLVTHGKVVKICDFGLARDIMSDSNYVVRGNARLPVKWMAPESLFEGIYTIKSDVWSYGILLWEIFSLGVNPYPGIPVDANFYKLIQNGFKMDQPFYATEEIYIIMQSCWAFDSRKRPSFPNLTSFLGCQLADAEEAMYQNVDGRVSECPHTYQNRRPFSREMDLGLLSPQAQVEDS
Protocol: as §1, §2

T1 sequence (P04629 33-796): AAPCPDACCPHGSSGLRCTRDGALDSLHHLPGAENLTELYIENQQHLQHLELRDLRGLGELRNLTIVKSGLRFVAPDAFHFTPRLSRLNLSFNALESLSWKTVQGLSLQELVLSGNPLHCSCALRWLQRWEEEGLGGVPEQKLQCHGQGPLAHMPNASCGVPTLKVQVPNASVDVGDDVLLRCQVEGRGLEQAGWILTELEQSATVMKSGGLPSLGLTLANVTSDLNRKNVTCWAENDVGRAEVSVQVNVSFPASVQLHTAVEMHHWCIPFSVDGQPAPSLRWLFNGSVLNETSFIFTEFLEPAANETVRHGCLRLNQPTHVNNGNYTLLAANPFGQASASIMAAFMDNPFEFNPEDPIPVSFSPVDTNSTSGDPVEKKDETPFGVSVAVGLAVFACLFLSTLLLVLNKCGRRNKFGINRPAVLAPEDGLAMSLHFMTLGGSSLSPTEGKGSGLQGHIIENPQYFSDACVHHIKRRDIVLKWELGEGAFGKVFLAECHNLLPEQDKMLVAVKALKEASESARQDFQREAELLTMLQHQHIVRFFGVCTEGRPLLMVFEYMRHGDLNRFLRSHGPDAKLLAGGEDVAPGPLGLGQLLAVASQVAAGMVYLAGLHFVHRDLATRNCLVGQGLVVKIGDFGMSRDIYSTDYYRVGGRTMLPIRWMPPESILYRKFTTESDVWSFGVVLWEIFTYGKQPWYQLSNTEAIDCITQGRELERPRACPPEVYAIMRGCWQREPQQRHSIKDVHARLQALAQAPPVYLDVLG

Row | Structure (SMILES) | inhibition at 1 µM (TrkA Kinase) [%] | inhibition at 1 µM (c-Src kinase) [%] | inhibition at 1 µM (Aurora-A(h)) [%] | inhibition at 1 µM (Ret kinase) [%] | inhibition at 1 µM (Flt3 kinase) [%] | % Inhibition @1 μM TrkA (TrkA Kinase) [%] | % Inhibition @1 μM Ret (Ret kinase) [%] | % Inhibition @1 μM Flt3 (Flt3 kinase) [%]
1 | CC(C)c1cnc(Nc2nc(NC(C)c3ccc(F)cc3)nc(N3CCN(C)CC3)n2)s1 (stereo not shown) [Example 2] | > 90 | > 90 | < 50 | < 50 | > 90 |  |  | 
2 | CC(C)c1cnc(Nc2nc(N[C@@H](C)c3ccc(F)cc3)nc(N3CCN(C)CC3)n2)s1 [Example 3] | > 90 | > 90 | 50 to 90 | 50 to 90 | > 90 |  |  | 
3 | CC(C)c1cnc(Nc2nc(N[C@H](C)c3ccc(F)cc3)nc(N3CCN(C)CC3)n2)s1 [Example 4] | 50 to 90 | 50 to 90 | < 50 | < 50 | > 90 |  |  | 
4 | Cc1cnc(Nc2nc(NCc3ccc4c(c3)OCO4)nc(N3CCN(C)CC3)n2)s1 [Example 6] | > 90 | 50 to 90 | 50 to 90 | 50 to 90 | > 90 |  |  | 
5 | Cc1cnc(Nc2nc(NCc3ccccc3)nc(N3CCN(C)CC3)n2)s1 [Example 7] | > 90 | 50 to 90 | 50 to 90 | > 90 | > 90 |  |  | 
6 | Cc1cnc(Nc2nc(NCc3ccc(F)cc3)nc(N3CCN(C)CC3)n2)s1 [Example 8] | > 90 | 50 to 90 | 50 to 90 | 50 to 90 | > 90 |  |  | 
7 | CN1CCN(c2nc(NCc3ccc(F)cc3)nc(Nc3cc(-c4ccco4)[nH]n3)n2)CC1 [Example 9] | > 90 | 50 to 90 | < 50 | < 50 | > 90 |  |  | 
8 | CN1CCN(c2nc(Nc3cc(-c4ccco4)[nH]n3)nc(N(C)Cc3ccc(F)cc3)n2)CC1 [Example 10] | > 90 | 50 to 90 | 50 to 90 | < 50 | > 90 |  |  | 
9 | CN1CCN(c2nc(Nc3cc(-c4ccco4)[nH]n3)nc(SCc3ccc(F)cc3)n2)CC1 [Example 11] | > 90 | 50 to 90 | 50 to 90 | < 50 | > 90 |  |  | 
10 | CN1CCN(c2nc(NCc3ccccc3)nc(Nc3cc(-c4ccco4)[nH]n3)n2)CC1 [Example 12] | > 90 | 50 to 90 | < 50 | < 50 | > 90 |  |  | 
11 | CN1CCN(c2nc(Nc3cc(-c4ccco4)[nH]n3)nc(OCc3ccccc3)n2)CC1 [Example 14] | > 90 | < 50 | < 50 | < 50 | > 90 |  |  | 
12 | CN1CCN(c2nc(Nc3cc(-c4ccco4)[nH]n3)nc(SCc3ccccc3)n2)CC1 [Example 15] | > 90 | < 50 | < 50 | < 50 | > 90 |  |  | 
13 | C[C@@H](Nc1nc(Nc2cc(-c3ccco3)[nH]n2)nc(N2CCN(C)CC2)n1)c1ccc(F)cc1 [Example 18] | > 90 | > 90 | < 50 | > 90 | > 90 |  |  | 
14 | CN1CCN(c2nc(NCc3ccccc3)nc(Nc3ncc(-c4ccccc4)s3)n2)CC1 [Example 19] | < 50 | < 50 | < 50 | < 50 | < 50 |  |  | 
15 | CC(Nc1nc(Nc2cc(C3CC3)[nH]n2)nc(N2CCN(C)CC2)n1)c1ccc(F)cc1 (stereo not shown) [Example 20] | 50 to 90 | 50 to 90 | 50 to 90 | < 50 | 50 to 90 |  |  | 
16 | C[C@H](Nc1nc(Nc2cc(-c3ccco3)[nH]n2)nc(N2CCN(C)CC2)n1)c1ccc(F)cc1 [Example 21] | > 90 | < 50 | < 50 | > 90 | > 90 |  |  | 
17 | C[C@@H](Nc1nc(Nc2cc(-c3ccco3)[nH]n2)nc(N2CCN(C)CC2)n1)c1ccc(F)cc1 [Example 22] |  |  |  |  |  | >90 | >90 | >90
18 | CN1CCN(c2nc(Nc3cc(-c4ccco4)[nH]n3)nc(NC(C)(C)c3ccccc3)n2)CC1 [Example 23] | > 90 | < 50 | < 50 | > 90 | > 90 |  |  | 
